According to patent publication US11377436B2, “EAAT2 enhancing molecules” (THE BRIGHAM AND WOMEN'S HOSPITAL, INC., priority 2017, dated 2022):

How the values were obtained:
human EAAT2 = experiment: In vitro assay in primary astrocyte cultures (PA-EAAT2 cells), EAAT2 protein levels by Western blot; assay type: cell-based; settings: for In vitro - fold increase for EAAT2 in cultured astrocytes at indicated concentration (maximum activity): PA-EAAT2 cells treated 24 hr at 0.25-25 μM, relative to DMSO controls, value at the concentration that reaches maximum activity; for indicated concentration that reaches maximum activity (EAAT2 increase in cultured astrocytes): PA-EAAT2 cells, 24 hr, tested at 0.25, 0.5, 1, 2.5, 5, 10 and 25 μM
Procedure: In vitro assay in primary astrocyte cultures. Example compounds were initially evaluated in PA-EAAT2 cells, a primary astrocyte stably expressing human EAAT2 mRNAs (Kong et al., J Clin Invest. 124:1255-67). Cells were treated with the example compounds at 0.25 μM, 0.5 μM, 1 μM, 2.5 μM, 5 μM, 10 μM, and 25 μM for 24 hr and then harvested for measuring EAAT2 protein levels by Western blot analysis.

EAAT2 = experiment: In vivo assay in wild-type mice, EAAT2 protein levels in forebrain gliosomes by Western blot; settings: C57BL/6J mice, 40 mg/kg oral gavage, relative to vehicle controls
Procedure: In vivo assay in wild-type mice. Example compounds that were capable of increasing EAAT2 protein expression in cultured astrocytes were further evaluated in C57BL/6J mice. Mice were treated by oral gavage with the compound at 40 mg/kg. At 24 hr post-treatment, mice were euthanized and forebrains were harvested for the gliosome preparation (Dunkley et al., Nat Protoc 3, 1718-1728). Gliosomes are enriched with astrocytic processes, and majority of EAAT2 is localized in astrocytic processes (gliosomes). EAAT2 protein levels in gliosomes were determined by Western blot analysis.

SMILES | In vitro - fold increase for EAAT2 in cultured astrocytes at indicated concentration (maximum activity) (human EAAT2) | indicated concentration that reaches maximum activity (EAAT2 increase in cultured astrocytes) (human EAAT2) | In vivo - fold increase for EAAT2 in mouse forebrain at 24 hr post treatment (40 mg/kg by PO) (EAAT2)
O=C(Nc1ccc(-c2ccccn2)cn1)c1ccccc1 [Example 3, N-([2,3′-bipyridin]-6′-yl)benzamide] | 1.68 fold | (5 μM) | 1.42 fold
O=C(Nc1ccc(-c2ccccn2)nc1)c1ccccc1 [Example 18, N-([2,2′-bipyridin]-5-yl)benzamide] | 2.45 fold | (1 μM) | 1.56 fold
O=C(Nc1ccc(-c2ccccn2)nc1)c1ccc(F)cc1 [Example 19, N-([2,2′-bipyridin]-5-yl)-4-fluorobenzamide] | 1.97 fold | (1 μM) | 1.41 fold
COc1ccc(C(=O)Nc2ccc(-c3ccccn3)nc2)cc1 [Example 21, N-([2,2′-bipyridin]-5-yl)-4-methoxybenzamide] | 1.73 fold | (0.5 μM) | 1.34 fold
O=C(Nc1ccc(-c2ccccn2)nc1)c1ccc(Cl)cc1 [Example 22, N-([2,2′-bipyridin]-5-yl)-4-chlorobenzamide] | 1.64 fold | (0.5 μM) | 1.20 fold
O=C(Nc1ccc(-c2ccccn2)nc1)c1cccc(Cl)c1 [Example 23, N-([2,2′-bipyridin]-5-yl)-3-chlorobenzamide] | 1.84 fold | (2.5 μM) | 1.45 fold
O=C(Nc1cnc(-c2ccccn2)cn1)c1ccccc1 [Example 33, N-(5-(pyridin-2-yl)pyrazin-2-yl)benzamide] | no increase | – | no increase
O=C(Nc1ncc(-c2ccccn2)cn1)c1ccccc1 [Example 48, N-(5-(pyridin-2-yl)pyrimidin-2-yl)benzamide] | 1.58 fold | (2.5 μM) | 1.45 fold
O=C(Nc1cnc(-c2ccccn2)nc1)c1ccccc1 [Example 63, N-(2-(pyridin-2-yl)pyrimidin-5-yl)benzamide] | 1.32 fold | (5 μM) | no increase
CN(C)CCOc1ccc(-c2ccccn2)cn1 [Example 94, 2-([2,3′-bipyridin]-6′-yloxy)-N,N-dimethylethan-1-amine] | 1.51 fold | (5 μM) | 1.49 fold
CN(C)CCOc1cnc(-c2ccccn2)cn1 [Example 136, N,N-dimethyl-2-((5-(pyridin-2-yl)pyrazin-2-yl)oxy)ethan-1-amine] | no increase | – | no increase
CN(C)CCOc1ncc(-c2ccccn2)cn1 [Example 157, N,N-dimethyl-2-((5-(pyridin-2-yl)pyrimidin-2-yl)oxy)ethan-1-amine] | 1.54 fold | (1 μM) | 1.37 fold
